Results taken from the NIST ThermoML archive (doi:10.1021/je0502851).
± gives the expanded uncertainty stated by the source.

How the values were obtained:
[1] = Crystal; DTA
[2] = Molar enthalpy of transition or fusion; settings: Crystal; DSC

Normal melting temperature [1] [°C] | Molar enthalpy of transition or fusion [2] [kcal/mol] | Compound
38.5 ± 0.53 | 9.41 ± 0.263 | NCCCCCCN [1,6-hexanediamine]
51.73 ± 0.53 | 12.1 ± 0.359 | NCCCCCCCCN [1,8-diaminooctane]
68.69 ± 0.53 | 16 ± 0.359 | NCCCCCCCCCCCCN [1,12-dodecanediamine]
81.54 ± 0.53 | 4.67 ± 0.215 | c1ccc2ccccc2c1 [naphthalene]
